# According to patent publication US12404279B2, “Deubiquitinase inhibitors and methods of use thereof” (Molecure S.A., priority 2021, dated 2025):
# Counter-ions that a name gives are not always drawn.
# Biological target: full-length USP7 (Homo sapiens (Human), UniProt Q93009)
# Test: Enzymatic assay to determine IC50 of USP7 inhibitors (Ubiquitin-Rhodamine 110 cleavage)
# Format: biochemical
# Settings: 0.5 nM USP7, 0.5 μM Ubiquitin-Rhodamine 110, 45 min at 37° C.
# Procedure, shortened: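 Full-length USP7 (0.5 nM) in 50 mM HEPES pH 7.5, 150 mM NaCl, 1 mM DTT, 1 mg/ml BSA, 0.05% Tween20 was preincubated 15 min with DTT at room temperature before compound addition.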
# Chain of full-length USP7 (Q93009 whole entry): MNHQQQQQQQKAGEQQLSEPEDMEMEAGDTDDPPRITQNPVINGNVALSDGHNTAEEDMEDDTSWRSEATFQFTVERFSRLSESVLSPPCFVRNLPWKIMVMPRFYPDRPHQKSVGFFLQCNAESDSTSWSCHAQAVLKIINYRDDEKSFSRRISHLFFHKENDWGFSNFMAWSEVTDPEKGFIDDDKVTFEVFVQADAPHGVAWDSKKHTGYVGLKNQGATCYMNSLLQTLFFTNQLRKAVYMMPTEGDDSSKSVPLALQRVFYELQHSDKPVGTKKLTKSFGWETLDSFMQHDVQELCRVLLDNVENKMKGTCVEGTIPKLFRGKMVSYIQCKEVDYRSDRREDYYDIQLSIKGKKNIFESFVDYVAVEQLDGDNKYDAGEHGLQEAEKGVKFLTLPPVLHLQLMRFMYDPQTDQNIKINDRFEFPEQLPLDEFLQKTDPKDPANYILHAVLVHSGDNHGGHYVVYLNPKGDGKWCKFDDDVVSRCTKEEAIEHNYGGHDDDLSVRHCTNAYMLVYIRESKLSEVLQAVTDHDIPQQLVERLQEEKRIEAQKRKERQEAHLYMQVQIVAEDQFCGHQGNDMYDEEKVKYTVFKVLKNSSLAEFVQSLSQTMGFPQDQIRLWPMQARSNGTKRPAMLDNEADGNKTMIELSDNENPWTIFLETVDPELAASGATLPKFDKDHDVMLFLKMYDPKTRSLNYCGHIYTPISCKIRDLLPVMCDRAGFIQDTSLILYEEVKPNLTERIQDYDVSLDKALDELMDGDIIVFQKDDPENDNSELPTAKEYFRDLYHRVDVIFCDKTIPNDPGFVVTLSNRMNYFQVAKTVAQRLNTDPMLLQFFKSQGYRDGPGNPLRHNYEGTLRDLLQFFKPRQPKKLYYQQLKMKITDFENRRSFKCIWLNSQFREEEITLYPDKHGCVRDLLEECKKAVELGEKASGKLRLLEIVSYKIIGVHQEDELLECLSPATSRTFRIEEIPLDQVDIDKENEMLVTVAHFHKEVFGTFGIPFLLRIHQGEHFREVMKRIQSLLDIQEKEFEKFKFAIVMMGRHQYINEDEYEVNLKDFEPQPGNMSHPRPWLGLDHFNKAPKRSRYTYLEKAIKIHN
row,IC50,Compound
1,1000 to 10000 nM,"Cc1nc(Cl)cc(-c2ccnc3cc(CN4C(=O)C5C(C4=O)C5(C)C)sc23)c1NC(=O)[C@@H]1CCNC1 (stereo partly drawn) [Example 120, (3R)—N-(6-chloro-4-(2-((6,6-dimethyl-2,4-dioxo-3-azabicyclo[3.1.0]hexan-3-yl)methyl)thieno[3,2-b]pyridin-7-yl)-2-methylpyridin-3-yl)pyrrolidine-3-carboxamide 2,2,2-trifluoroacetate]"
2,500 to 1000 nM,"Cc1cc(Cl)nc(-c2ccnc3cc(CN4C(=O)C5C(C4=O)C5(C)C)sc23)c1N1CCCNC1=O (centres unmarked) [Example 121, 3-((7-(6-chloro-4-methyl-3-(2-oxotetrahydropyrimidin-1(2H)-yl)pyridin-2-yl)thieno[3,2-b]pyridin-2-yl)methyl)-6,6-dimethyl-3-azabicyclo[3.1.0]hexane-2,4-dione 2,2,2-trifluoroacetate]"
3,< 500 nM,"Cc1cc(Cl)nc(-c2ccnc3cc(CN4C(=O)C5C(C4=O)C5(C)C)sc23)c1NC1CNC1 (centres unmarked) [Example 122, 3-((7-(3-(azetidin-3-ylamino)-6-chloro-4-methylpyridin-2-yl)thieno[3,2-b]pyridin-2-yl)methyl)-6,6-dimethyl-3-azabicyclo[3.1.0]hexane-2,4-dione tetrahydrochloride]"
4,500 to 1000 nM,"Cc1cc(Cl)nc(-c2ccnc3cc(CN4C(=O)C5C(C4=O)C5(C)C)sc23)c1NC1CC(F)(F)C1 (centres unmarked) [Example 123, 3-((7-(6-chloro-3-((3,3-difluorocyclobutyl)amino)-4-methylpyridin-2-yl)thieno[3,2-b]pyridin-2-yl)methyl)-6,6-dimethyl-3-azabicyclo[3.1.0]hexane-2,4-dione 2,2,2-trifluoroacetate]"
5,< 500 nM,"Cc1cc(Cl)nc(-c2ccnc3cc(CN4C(=O)C5C(C4=O)C5(C)C)sc23)c1NC1CCNC1 (centres unmarked) [Example 126, 3-((7-(6-chloro-4-methyl-3-(pyrrolidin-3-ylamino)pyridin-2-yl)thieno[3,2-b]pyridin-2-yl)methyl)-6,6-dimethyl-3-azabicyclo[3.1.0]hexane-2,4-dione tetrahydrochloride]"
6,< 500 nM,"Cc1cc(Cl)nc(-c2ccnc3cc(CN4C(=O)C5C(C4=O)C5(C)C)sc23)c1NC1CCNCC1 (centres unmarked) [Example 127, 3-((7-(6-chloro-4-methyl-3-(piperidin-4-ylamino)pyridin-2-yl)thieno[3,2-b]pyridin-2-yl)methyl)-6,6-dimethyl-3-azabicyclo[3.1.0]hexane-2,4-dione tetrahydrochloride]"
7,< 500 nM,"Cc1cc(C(F)(F)F)nc(-c2ccnc3cc(CN4C(=O)C5C(C4=O)C5(C)C)sc23)c1NC1CCNCC1 (centres unmarked) [Example 128, 6,6-dimethyl-3-((7-(4-methyl-3-(piperidin-4-ylamino)-6-(trifluoromethyl)pyridin-2-yl)thieno[3,2-b]pyridin-2-yl)methyl)-3-azabicyclo[3.1.0]hexane-2,4-dione tetrahydrochloride]"
8,< 500 nM,"Cc1cc(Cl)nc(-c2ccnc3cc(CN4C(=O)C5C(C4=O)C5(C)C)sc23)c1NC1CC2(CNC2)C1 (centres unmarked) [Example 131, 3-((7-(3-((2-azaspiro[3.3]heptan-6-yl)amino)-6-chloro-4-methylpyridin-2-yl)thieno[3,2-b]pyridin-2-yl)methyl)-6,6-dimethyl-3-azabicyclo[3.1.0]hexane-2,4-dione hydrobromide]"
9,< 500 nM,"Cc1cc(C(F)(F)F)nc(-c2ccnc3cc(CN4C(=O)C5C(C4=O)C5(C)C)sc23)c1NC1CC2(CNC2)C1 (centres unmarked) [Example 132, 3-((7-(3-((2-azaspiro[3.3]heptan-6-yl)amino)-4-methyl-6-(trifluoromethyl)pyridin-2-yl)thieno[3,2-b]pyridin-2-yl)methyl)-6,6-dimethyl-3-azabicyclo[3.1.0]hexane-2,4-dione 2,2,2-trifluoroacetate]"
10,1000 to 10000 nM,"Cc1cc(C)c(NC(=O)C2CNC2)c(-c2ccnc3cc(CN4C(=O)C5C(C4=O)C5(C)C)sc23)n1 (centres unmarked) [Example 133, N-(2-(2-((6,6-dimethyl-2,4-dioxo-3-azabicyclo[3.1.0]hexan-3-yl)methyl)thieno[3,2-b]pyridin-7-yl)-4,6-dimethylpyridin-3-yl)azetidine-3-carboxamide 2,2,2-trifluoroacetate]"

# More lines, now with the values behind:
row,Compound,IC50
1,"Cc1cc(C(F)(F)F)nc(-c2ccnc3cc(CN4C(=O)C5C(C4=O)C5(C)C)sc23)c1C(=O)N1CC[C@H](O)C1 (stereo partly drawn) [Example 113, 3-((7-(3-((S)-3-hydroxypyrrolidine-1-carbonyl)-4-methyl-6-(trifluoromethyl)pyridin-2-yl)thieno[3,2-b]pyridin-2-yl)methyl)-6,6-dimethyl-3-azabicyclo[3.1.0]hexane-2,4-dione hydrochloride]",< 500 nM
2,"Cc1cc(C(F)(F)F)nc(-c2ccnc3cc(CN4C(=O)C5C(C4=O)C5(C)C)sc23)c1C(=O)N1CC[C@H](F)C1 (stereo partly drawn) [Example 114, 3-((7-(3-((S)-3-fluoropyrrolidine-1-carbonyl)-4-methyl-6-(trifluoromethyl)pyridin-2-yl)thieno[3,2-b]pyridin-2-yl)methyl)-6,6-dimethyl-3-azabicyclo[3.1.0]hexane-2,4-dione hydrochloride]",< 500 nM
3,"Cc1cc(C(F)(F)F)nc(-c2ccnc3cc(CN4C(=O)C5C(C4=O)C5(C)C)sc23)c1C(=O)N1CC[C@H](CN)C1 (stereo partly drawn) [Example 115, 3-((7-(3-((R)-3-(aminomethyl)pyrrolidine-1-carbonyl)-4-methyl-6-(trifluoromethyl)pyridin-2-yl)thieno[3,2-b]pyridin-2-yl)methyl)-6,6-dimethyl-3-azabicyclo[3.1.0]hexane-2,4-dione dihydrochloride]",500 to 1000 nM
4,"Cc1cc(C(F)(F)F)nc(-c2ccnc3cc(CN4C(=O)C5C(C4=O)C5(C)C)sc23)c1C(=O)N1CC[C@@H]2CNC[C@@H]21 (stereo partly drawn) [Example 116, 6,6-dimethyl-3-((7-(4-methyl-3-((3aR,6aR)-octahydropyrrolo[3,4-b]pyrrole-1-carbonyl)-6-(trifluoromethyl)pyridin-2-yl)thieno[3,2-b]pyridin-2-yl)methyl)-3-azabicyclo[3.1.0]hexane-2,4-dione dihydrochloride]",< 500 nM
5,"Cc1cc(C(F)(F)F)nc(-c2ccnc3cc(CN4C(=O)C5C(C4=O)C5(C)C)sc23)c1C(=O)N1C[C@@H](N)[C@H](F)C1 (stereo partly drawn) [Example 117, 3-((7-(3-((3R,4R)-3-amino-4-fluoropyrrolidine-1-carbonyl)-4-methyl-6-(trifluoromethyl)pyridin-2-yl)thieno[3,2-b]pyridin-2-yl)methyl)-6,6-dimethyl-3-azabicyclo[3.1.0]hexane-2,4-dione dihydrochloride]",< 500 nM
6,"Cc1cc(Cl)cc(-c2ccnc3cc(CN4C(=O)C5C(C4=O)C5(C)C)sc23)c1NC(=O)C1CCNCC1 (centres unmarked) [Example 118, N-(4-chloro-2-(2-((6,6-dimethyl-2,4-dioxo-3-azabicyclo[3.1.0]hexan-3-yl)methyl)thieno[3,2-b]pyridin-7-yl)-6-methylphenyl)piperidine-4-carboxamide 2,2,2-trifluoroacetate]",< 500 nM
7,"Cc1cc(C(F)(F)F)nc(-c2ccnc3cc(CN4C(=O)C5C(C4=O)C5(C)C)sc23)c1C(=O)N1[C@@H](C)CNC[C@@H]1C (stereo partly drawn) [Example 141, 3-((7-(3-((2S,6S)-2,6-dimethylpiperazine-1-carbonyl)-4-methyl-6-(trifluoromethyl)pyridin-2-yl)thieno[3,2-b]pyridin-2-yl)methyl)-6,6-dimethyl-3-azabicyclo[3.1.0]hexane-2,4-dione 2,2,2-trifluoroacetate]",< 500 nM
8,"Cc1cc(C(F)(F)F)nc(-c2ccnc3cc(CN4C(=O)C5C(C4=O)C5(C)C)sc23)c1C(=O)N1[C@H](C)CNC[C@H]1C (stereo partly drawn) [Example 142, 3-((7-(3-((2R,6R)-2,6-dimethylpiperazine-1-carbonyl)-4-methyl-6-(trifluoromethyl)pyridin-2-yl)thieno[3,2-b]pyridin-2-yl)methyl)-6,6-dimethyl-3-azabicyclo[3.1.0]hexane-2,4-dione 2,2,2-trifluoroacetate]",1000 to 10000 nM
9,"CCN1CCN(C(=O)c2c(C)cc(C(F)(F)F)nc2-c2ccnc3cc(CN4C(=O)C5C(C4=O)C5(C)C)sc23)CC1 (centres unmarked) [Example 143, 3-((7-(3-(4-ethylpiperazine-1-carbonyl)-4-methyl-6-(trifluoromethyl)pyridin-2-yl)thieno[3,2-b]pyridin-2-yl)methyl)-6,6-dimethyl-3-azabicyclo[3.1.0]hexane-2,4-dione trihydrochloride]",< 500 nM

# Same assay, conditions: at 1 μM of the test compound; given where IC50 not determined yet; read-out: percent value of inhibition of USP7 activity
row,inhibition at 1 µM,Compound
1,< 20%,"Cc1cc(-c2ccnc3cc(CN4C(=O)C5C(C4=O)C5(C)C)sc23)c(O[C@H]2CCCNC2)cn1 (stereo partly drawn) [Example 119, 6,6-dimethyl-3-((7-(2-methyl-5-(((S)-piperidin-3-yl)oxy)pyridin-4-yl)thieno[3,2-b]pyridin-2-yl)methyl)-3-azabicyclo[3.1.0]hexane-2,4-dione 2,2,2-trifluoroacetate]"
2,50 to 70%,"Cc1cc(C(F)(F)F)nc(-c2ccnc3cc(CN4C(=O)C5C(C4=O)C5(C)C)sc23)c1C(=O)N1CC[C@H](C(C)N)C1 (stereo partly drawn) [Example 138, 3-((7-(3-((3S)-3-(1-aminoethyl)pyrrolidine-1-carbonyl)-4-methyl-6-(trifluoromethyl)pyridin-2-yl)thieno[3,2-b]pyridin-2-yl)methyl)-6,6-dimethyl-3-azabicyclo[3.1.0]hexane-2,4-dione trihydrochloride]"

# Same assay, conditions: read-out: percent value of inhibition of USP7 activity
row,Compound,inhibition at 1 µM
1,"Cc1cc(C)c(NC(=O)C2CCNCC2)c(-c2ccnc3cc(CN4C(=O)C5C(C4=O)C5(C)C)sc23)n1 (centres unmarked) [Example 134, N-(2-(2-((6,6-dimethyl-2,4-dioxo-3-azabicyclo[3.1.0]hexan-3-yl)methyl)thieno[3,2-b]pyridin-7-yl)-4,6-dimethylpyridin-3-yl)piperidine-4-carboxamide 2,2,2-trifluoroacetate]",< 20%
2,"Cc1cc(Cl)nc(-c2ccnc3cc(CN4C(=O)C5C(C4=O)C5(C)C)sc23)c1C(=O)N1CCNCC1 (centres unmarked) [Example 135, 3-((7-(6-chloro-4-methyl-3-(piperazine-1-carbonyl)pyridin-2-yl)thieno[3,2-b]pyridin-2-yl)methyl)-6,6-dimethyl-3-azabicyclo[3.1.0]hexane-2,4-dione 2,2,2-trifluoroacetate]",< 20%
